{
  "source": "paper PMC12693167",
  "about": "“Design, Synthesis and Anticancer Activity of 6-Substituted-1-(3,4,5-trimethoxyphenyl)-1H-indole Against Tubulin Polymerisation” (Molecules, 2025)",
  "key": {"MCF-7 cells [1]": {"system": "MCF-7 cells", "test": "Wound healing assay", "assay_type": "cell-based, human", "conditions": "0.1, 1, 10 μM, 24 h, vs untreated control", "method": "(§1) The impact of compound 3g on MCF-7 cell migration was assessed using wound healing and transwell migration assays.\nMCF-7 cells were seeded and incubated in a 6-well plate overnight. Scratches were made in confluent monolayers with a 200 μL pipette tip. Then, wounds were washed twice with media to remove debris and uprooted cells. Cells were treated with various concentrations (0, 0.1, 1, and 10 μM) of compound 3g. Images were obtained using phase contrast microscopy at 0 and 24 h. The migration distance of cells in the wound area was quantified using ImageJ.\nFigure 4 Effect of compound 3g on the migration of MCF-7 breast cancer cells. (A) 3g inhibited the migration of MCF-7 cells at different concentrations in a dose-dependent manner. Representative images of wound healing were captured by an inverted microscope at 0 h and 24 h treatment. Scale bar = 200 μm. (B) Wound closure percentages in the different groups after treatment with 3g for 24 h. (C) Results of the transwell migration assay. Representative images of the stained migrated cells after incubation with 3g at different concentrations for 48 h. Scale bar = 200 μm. Data are presented as the mean ± SD of three independent experiments. Bar values represent the standard deviation SD. ** p < 0.01, and *** p < 0.001 (one-way ANOVA)."}, "MCF-7 cells [2]": {"system": "MCF-7 cells", "test": "Cell cycle analysis by flow cytometry", "assay_type": "cell-based, human", "conditions": "10 μM, 48 h", "method": "Given that microtubule polymerization inhibitors are known to disrupt mitosis and induce cell cycle arrest, we evaluated the effect of compound 3g on cell cycle progression in MCF-7 cells by flow cytometry.\nMCF-7 cells were seeded in 6-well plates and cultured overnight. Cells were then treated with compound 3g at concentrations of 0.1, 1, and 10 μM for 48 h. After treatment, cells were collected and fixed in 70% ethanol at 4 °C overnight. The fixed cells were washed and resuspended in staining buffer containing RNase A and propidium iodide (PI), followed by incubation in the dark at 37 °C for 30 min. DNA content was subsequently analyzed by flow cytometry.\nFigure 6 Cell cycle arrest induced by compound 3g. (A) Compound 3g induced G2/M arrest in MCF-7 cells. MCF-7 cells were incubated with varying concentrations of compound 3g (0.1, 1, and 10 μM) for 48 h. The percentages of cells in different phases of the cell cycle were analyzed by FlowJo 10.8.1. (B) Histograms display the percentage of cell cycle distribution after treatment with compound 3g. Data are expressed as mean ± standard deviation from three independent experiments. Statistical significance was determined by one-way ANOVA followed by Tukey’s post hoc test."}, "MDA-MB-231 cells": {"system": "MDA-MB-231 cells", "test": "CCK-8 antiproliferative assay, MDA-MB-231", "assay_type": "cell-based", "conditions": "Homo sapiens, cell viability (CCK-8), 48 h", "method": "(§2) To evaluate the anticancer potential of the synthesized compounds, a panel of six human and murine cancer cell lines representing different tissue origins was selected, including MCF-7 (human breast adenocarcinoma), MDA-MB-231 (human triple-negative breast cancer), A549 (human non-small cell lung cancer), HeLa (human cervical cancer), A375 (human melanoma), and B16-F10 (murine melanoma) (Table 2). […] DMSO was used as the vehicle control, and all experiments were performed in triplicate to ensure reproducibility.\n(§3) Human breast cancer cells (MCF-7), human lung cancer cells (A549), human cervical cancer cells (HeLa), human triple-negative breast cancer cells (MDA-MB-231), and human malignant melanoma cells (A375) were cultured in DMEM. Mouse melanoma cells (B16F10) were maintained in RPMI-1640 medium. All media were supplemented with 10% fetal bovine serum and 1% penicillin-streptomycin (Life Technologies, Carlsbad, CA, USA) and maintained at 37 °C in a humidified atmosphere with 5% CO2.\n(§4) The cytotoxicity of the test compounds was evaluated against MCF-7, A549, HeLa, MDA-MB-231, A375, and B16F10 using the CCK-8 assay. Cells were seeded into 96-well plates at a density of 5000 cells/well. After removing the medium, 100 μL of medium with 0.1% DMSO containing test compounds at different concentrations was added to each well and incubated at 37 °C for another 48 h. The CCK-8 solution was added and incubated for another 1 h, and then, the absorbance was detected with a microplate reader at a wavelength of 450 nm. The IC50 values were calculated by nonlinear regression analysis using GraphPad Prism 8.0.2. All the experiments were repeated at least three times."}, "MCF-7 cells [3]": {"system": "MCF-7 cells", "test": "Colony formation assay", "assay_type": "cell-based, human", "conditions": "24 h treatment", "method": "To assess the long-term antiproliferative potential of compound 3g, a colony formation assay was conducted using MCF-7 breast cancer cells.\nMCF-7 cells (1000 cells/well) were counted and seeded in 6-well plates. After being cultured for 24 h at 37 °C, the medium was replaced with medium added with compound 3g at the indicated concentration. After 24 h of treatment, the medium was changed to normal. After being cultured for another 10–14 days, the colonies were fixed with 4% paraformaldehyde for 30 min and stained with 0.1% crystal violet for 15 min. Following washing with PBS, the colonies were then photographed and quantified using Image J 1.54g.\nFigure 3 Inhibition of MCF-7 Cell Colony Formation by Compound 3g. (A) 3g inhibited the colony formation of MCF-7 cells at different concentrations in a dose-dependent manner. (B) Colony units in the different groups after treatment with 3g. Number of colonies was counted after treating MCF-7 cells with the indicated concentration of compound 3g for 24 h (n = 3, * p < 0.05, ** p < 0.01 vs. DMSO control, one-way ANOVA)."}, "MCF-7 cells [4]": {"system": "MCF-7 cells", "test": "Transwell migration assay", "assay_type": "cell-based, human", "conditions": "24 h exposure, dose-dependent", "method": "as §1\nMCF-7 cells were seeded into six-well culture plates at a density of 5 × 10^5 cells per well for 24 h. After treatment with compounds 3g at different concentrations for 24 h, cells were harvested and inoculated on transwell filters ([…] pore size, Millipore, Billerica, MA, USA) in 24-well culture plates. The cells in the top chamber were cultured in the FBS-free medium, and those in the bottom chamber were cultured in the medium containing 10% FBS. The plates were cultivated for an additional 48 h, and the cells that had migrated to the bottom of the top chambers were fixed with 4% paraformaldehyde and then stained with 0.1% crystal violet. Images of migrated cells were obtained using an inverted microscope (Olympus IX73, Olympus Corporation, Tokyo, Japan).\nFigure 4 Effect of compound 3g on the migration of MCF-7 breast cancer cells. (A) 3g inhibited the migration of MCF-7 cells at different concentrations in a dose-dependent manner. Representative images of wound healing were captured by an inverted microscope at 0 h and 24 h treatment. Scale bar = 200 μm. (B) Wound closure percentages in the different groups after treatment with 3g for 24 h. (C) Results of the transwell migration assay. […]"}, "HeLa cells": {"system": "HeLa cells", "test": "CCK-8 antiproliferative assay, HeLa", "assay_type": "cell-based", "conditions": "Homo sapiens, cell viability (CCK-8), 48 h", "method": "as §2, §3, §4"}, "MCF-7 cells [5]": {"system": "MCF-7 cells", "test": "CCK-8 antiproliferative assay, MCF-7", "assay_type": "cell-based", "conditions": "Homo sapiens, MCF7; cell viability (CCK-8), 48 h", "method": "as §2, §3, §4"}},
  "data": [
    {"compound": "COc1cc(-n2ccc3ccc(-c4ccc(C)c(C#N)c4)cc32)cc(OC)c1OC", "note": "[3g, 2-methyl-5-(1-(3,4,5-trimethoxyphenyl)-1H-indol-6-yl)benzonitrile]", "values": [
      {"measurement": "wound closure", "setting": "MCF-7 cells [1]", "value": "markedly inhibited"},
      {"measurement": "cells in the G2/M phase", "setting": "MCF-7 cells [2]", "value": "marked accumulation"},
      {"measurement": "IC50", "setting": "MDA-MB-231 cells", "value": "1610 ± 4", "unit": "nM"},
      {"measurement": "clonogenic survival / colony formation", "setting": "MCF-7 cells [3]; 0.1 μM", "value": "moderate reduction"},
      {"measurement": "colony formation", "setting": "MCF-7 cells [3]; 1 μM", "value": "progressively greater inhibition"},
      {"measurement": "colony formation", "setting": "MCF-7 cells [3]; 10 μM", "value": "near-complete suppression"},
      {"measurement": "number of cells traversing the membrane", "setting": "MCF-7 cells [4]", "value": "significant reduction"},
      {"measurement": "IC50", "setting": "HeLa cells", "value": "6100 ± 310", "unit": "nM"},
      {"measurement": "IC50", "setting": "MCF-7 cells [5]", "value": "2940 ± 560", "unit": "nM"}
    ]}
  ]
}
